Data: patent publication US12441762B2, “Hepatitis c virus NS3/4A protease inhibitors” (priority 2019, dated 2025)
Where two headings read alike, the source gives them in different places.

Key:
[1] = target: T1, wild-type HCV NS3/4A protease (GT1a) (Hepatitis C virus genotype 1a, UniProt P27958, C1185S); experiment: biochemical; format: biochemical
T1 construct: His-tag (cleaved yes); made in house; host or cells: Escherichia coli BL21(DE3), PET28a vector
In short: (§1)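 Inhibitors pre-incubated 1 h at room temperature with 2 nM NS3/4A protease (GT1a C159S or D168A) in 50 mM Tris, 5% glycerol, 10 mM DTT, 0.6 mM LDAO, 4% DMSO, pH 7.5. Km from global Michaelis-Menten fit of inner-filter-corrected initial velocities; three independent data sets per inhibitor and construct.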

[2] = target: T2, HCV NS3/4A protease D168A variant (Hepatitis C virus genotype 1a, UniProt P27958, C1185S/D1194A); experiment: biochemical; format: biochemical
T2 construct: His-tag (cleaved yes); made in house; host or cells: Escherichia coli BL21(DE3), PET28a vector
In short: as §1

[3] = test system: HCV NS3/4A protease D168A variant; experiment: biochemical; format: biochemical, Hepatitis C virus; conditions: Table S1, value in parentheses
In short: as §1

HCV NS3/4A protease GT3 = HCV NS3/4A protease GT3 (Hepatitis C virus genotype 3a, UniProt Q81495); experiment: biochemical
[4] = rcm bond, 70.0 °C, 6.0 h
[5] = rcm bond, 15-membered ring, Zhan 1B, 1,2-DCE, 70.0 °C

T1 sequence (P27958 1027-1208 C1185S): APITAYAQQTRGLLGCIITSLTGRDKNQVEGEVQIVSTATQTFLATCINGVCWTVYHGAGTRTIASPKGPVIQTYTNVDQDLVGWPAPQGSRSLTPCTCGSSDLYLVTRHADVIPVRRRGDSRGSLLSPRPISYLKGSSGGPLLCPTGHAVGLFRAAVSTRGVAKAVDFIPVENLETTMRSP
HCV NS3/4A protease GT3, sequence (Q81495 1033-1214): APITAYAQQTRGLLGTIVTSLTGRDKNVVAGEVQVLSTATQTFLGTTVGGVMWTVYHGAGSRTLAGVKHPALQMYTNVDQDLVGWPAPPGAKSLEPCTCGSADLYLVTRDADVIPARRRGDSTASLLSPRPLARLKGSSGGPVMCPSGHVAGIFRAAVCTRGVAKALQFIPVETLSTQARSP
HCV NS3/4A protease GT3, sequence (Q81495 1664-1717): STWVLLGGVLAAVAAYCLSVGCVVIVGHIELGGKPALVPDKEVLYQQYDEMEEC
T2 sequence (P27958 1027-1208 C1185S/D1194A): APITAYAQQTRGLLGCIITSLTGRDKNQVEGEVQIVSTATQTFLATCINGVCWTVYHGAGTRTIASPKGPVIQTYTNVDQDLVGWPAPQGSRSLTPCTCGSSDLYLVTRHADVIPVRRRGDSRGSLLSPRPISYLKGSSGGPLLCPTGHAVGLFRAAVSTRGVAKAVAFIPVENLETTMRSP

Question: What does the source list for `COc1ccc2nc(C)c(O[C@@H]3C[C@H]4C(=O)N[C@]5(C(=O)NS(=O)(=O)C6(C)CC6)C[C@H]5/C=C\CCCCC[C@H](NC(=O)OC5CCCCC5)C(=O)N4C3)nc2c1` [NR03-67, Cyclohexyl ((2R,6S,13aS,14aR,16aS,Z)-2-((7-methoxy-3-methylquinoxalin-2-yl)oxy)-14a-(((1-methylcyclopropyl)sulfonyl)carbamoyl)-5,16-dioxo-1,2,3,5,6,7,8,9,10,11,13a,14,14a,15,16,16a-hexadecahydrocyclopropa[e]pyrrolo[1,2-a][1,4]diazacyclopentadecin-6-yl)carbamate]?
Answer: Ki [1]: 0.94 ± 0.25 nM; Ki [2]: 12.7 ± 1.2 nM; fold increase in potency against D168A compared to the parent compound [2]: ~3 fold; Fold Change of D168A Ki with respect to GT1a wild-type [3]: (14) fold; Ki (HCV NS3/4A protease GT3): 145 ± 7 nM

Question: Which Ki [1] does the source give for `COc1ccc2nc(C)c(O[C@@H]3C[C@H]4C(=O)N[C@]5(C(=O)NS(=O)(=O)C6(C)CC6)C[C@H]5/C=C\CCCCC[C@H](NC(=O)OC(C)(C)C)C(=O)N4C3)nc2c1` [JZ01-15, tert-Butyl ((2R,6S,13aS,14aR,16aS, Z)-2-((7-methoxy-3-methylquinoxalin-2-yl)oxy)-14a-(((1-methylcyclopropyl)sulfonyl)carbamoyl)-5,16-dioxo-1,2,3,5,6,7,8,9,10,11,13a,14,14a,15,16,16a-hexadecahydrocyclopropa[e]pyrrolo[1,2-a] [1,4]diazacyclopentadecin-6-yl) carbamate] here?
Answer: Its Ki is 3.6 ± 0.44 nM.

Question: What about the Ki [2] of the same compound?
Answer: Its Ki is 52 ± 2.4 nM.

Question: And the “Fold Change of D168A Ki with respect to GT1a wild-type” value (“Fold Change of D168A Ki” for short) [3]?
Answer: The value was “(14) fold”.

Question: What about the ring closure, yield of all isomers ([4]; from C=CCCCCC[C@H](NC(=O)OC(C)(C)C)C(=O)N1C[C@H](Oc2nc3cc(OC)ccc3nc2C)C[C@H]1C(=O)N[C@]1(C(=O)NS(=O)(=O)C2(C)CC2)C[C@H]1C=C, Zhan 1B, 1,2-dichloroethane, 4.95 mM) of the same compound?
Answer: The ring closure, yield of all isomers was 70%.

Question: And the ring closure, yield of all isomers ([4]; from C=CCCCCC[C@H](NC(=O)OC(C)(C)C)C(=O)N1C[C@H](Oc2nc3cc(OC)ccc3nc2C)C[C@H]1C(=O)N[C@]1(C(=O)NS(=O)(=O)C2(C)CC2)C[C@H]1C=C, Zhan 1b catalyst, 1,2-DCE, 4.95 mM)?
Answer: The ring closure, yield of all isomers was 70%.

Question: For “tert-Butyl ((2R,6S,13aS,14aR,16aS, Z)-2-((7-methoxy-3-(trifluoromethyl) quinoxalin-2-yl) oxy)-14a-(((1-methylcyclopropyl) sulfonyl) carbamoyl)-5,16-dioxo-1,2,3,5,6,7,8,9,10,11,13a,14,14a,15,16,16a-hexadecahydrocyclopropa[e]pyrrolo[1,2-a] [1,4] diazacyclopentadecin-6-yl) carbamate”, which ring closure, isolated yield ([5]; 5.73 mM) is on record?
Answer: Its ring closure, isolated yield is 73%.

Question: For `COc1ccc2nc(C)c(O[C@@H]3C[C@H]4C(=O)N[C@]5(C(=O)NS(=O)(=O)C6(C)CC6)C[C@H]5/C=C\CCCCC[C@H](NC(=O)OC5(C)CCCC5)C(=O)N4C3)nc2c1` [JZ01-19], which Ki ([1]; Table 2, read-out: Ki WT (GT1a)) is on record?
Answer: Its Ki is 1.13 ± 0.22 nM.

Question: What about the Ki ([1]; Table S1, Morrison equation fit, read-out: Ki GT1a WT) of the same compound?
Answer: The Ki was 1.13 ± 0.22 nM.

Question: And the Ki ([2]; Table 2, read-out: Ki D168A)?
Answer: The Ki was 36 ± 1.8 nM.

Question: What about the Ki ([2]; Table S1, Morrison equation fit, read-out: Ki D168A) of the same compound?
Answer: The Ki was 36 ± 1.8 nM.

Question: And the “fold increase in potency against D168A compared to the parent compound” value [2]?
Answer: The value was roughly 3 fold.

Question: What about the “Fold Change of D168A Ki” value ([3]; listed as P4-3) of the same compound?
Answer: Its value is “(32) fold”.

Question: And the Ki (HCV NS3/4A protease GT3; Table 2, read-out: Ki GT3)?
Answer: The Ki was 121 ± 16 nM.

Question: For “tert-Butyl ((2R,6S,13aS,14aR,16aS, Z)-2-((7-methoxy-3-methylquinoxalin-2-yl) oxy)-14a-(((1-methylcyclopropyl) sulfonyl) carbamoyl)-5,16-dioxo-1,2,3,5,6,7,8,9,10,11,13a,14,14a,15,16,16a-hexadecahydrocyclopropa[e]pyrrolo[1,2-a] [1,4] diazacyclopentadecin-6-yl) carbamate”, which ring closure, isolated yield ([5]; 4.95 mM) is on record?
Answer: The ring closure, isolated yield was 70%.

Question: Which Ki [1] does the source give for `COc1ccc2nc(C)c(O[C@@H]3C[C@H]4C(=O)N[C@]5(C(=O)NS(=O)(=O)C6(C)CC6)C[C@H]5/C=C\CCCCC[C@H](NC(=O)O[C@@H]5C[C@@H]6C[C@@H]6C5)C(=O)N4C3)nc2c1` [NR03-77, (1R,3R,5S)-Bicyclo[3.1.0]hexan-3-yl ((2R,6S,13aS,14aR,16aS,Z)-2-((7-methoxy-3-methylquinoxalin-2-yl)oxy)-14a-(((1-methylcyclopropyl)sulfonyl)carbamoyl)-5,16-dioxo-1,2,3,5,6,7,8,9,10,11,13a,14,14a,15,16,16a-hexadecahydrocyclopropa[e]pyrrolo[1,2-a][1,4]diazacyclopentadecin-6-yl)carbamate] here?
Answer: Its Ki is 0.54 ± 0.2 nM.

Question: What about the “fold improvement in potency against WT compared to P4-2” value ([1]; compared to P4-2) of the same compound?
Answer: The value was roughly 3 fold.

Question: And the Ki [2]?
Answer: The Ki was 2.3 ± 0.7 nM.

Question: And the “fold more potent than grazoprevir towards D168A” value ([2]; compared to grazoprevir)?
Answer: The value was 20 fold.

Question: What about the “fold increase in potency against D168A compared to the parent compound” value [2] of the same compound?
Answer: Its value is 26 fold.

Question: What about the “Fold Change of D168A Ki” value [3] of the same compound?
Answer: Its value is “(4) fold”.

Question: And the Ki (HCV NS3/4A protease GT3)?
Answer: Its Ki is 38.6 ± 1.5 nM.

Question: Which Ki [1] does the source give for `COc1ccc2nc(C(F)(F)F)c(O[C@@H]3C[C@H]4C(=O)N[C@]5(C(=O)NS(=O)(=O)C6(C)CC6)C[C@H]5/C=C\CCCCC[C@H](NC(=O)OC(C)(C)C)C(=O)N4C3)nc2c1` [CH-24, tert-Butyl ((2R,6S,13aS,14aR,16aS, Z)-2-((7-methoxy-3-(trifluoromethyl)quinoxalin-2-yl)oxy)-14a-(((1-methylcyclopropyl)sulfonyl)carbamoyl)-5,16-dioxo-1,2,3,5,6,7,8,9,10,11,13a,14,14a,15,16,16a-hexadecahydrocyclopropa[e]pyrrolo[1,2-a] [1,4]diazacyclopentadecin-6-yl) carbamate] here?
Answer: Its Ki is 5.77 ± 1.78 nM.

Question: What about the Ki [2] of the same compound?
Answer: The Ki was 118 ± 13 nM.

Question: And the ring closure, yield of all isomers ([4]; from C=CCCCCC[C@H](NC(=O)OC(C)(C)C)C(=O)N1C[C@H](Oc2nc3cc(OC)ccc3nc2C(F)(F)F)C[C@H]1C(=O)N[C@]1(C(=O)NS(=O)(=O)C2(C)CC2)C[C@H]1C=C, Zhan 1B, 1,2-dichloroethane, 5.73 mM)?
Answer: The ring closure, yield of all isomers was 73%.

Question: What does the source list for `COc1ccc2nc(C)c(O[C@@H]3C[C@H]4C(=O)N[C@]5(C(=O)NS(=O)(=O)C6(C)CC6)C[C@H]5/C=C\CCCCC[C@H](NC(=O)OC5(C)CCCC5)C(=O)N4C3)nc2c1` [AJ-74, 1-Methylcyclopentyl ((2R,6S,13aS,14aR,16aS, Z)-2-((7-methoxy-3-methylquinoxalin-2-yl)oxy)-14a-(((1-methylcyclopropyl)sulfonyl)carbamoyl)-5,16-dioxo-1,2,3,5,6,7,8,9,10,11,13a,14,14a,15,16,16a-hexadecahydrocyclopropa[e]pyrrolo[1,2-a][1,4]diazacyclopentadecin-6-yl) carbamate]?
Answer: Ki [1]: 1.78 ± 0.3 nM; Ki [2]: 16 ± 1.2 nM; Fold Change of D168A Ki with respect to GT1a wild-type [3]: (9) fold; Ki (HCV NS3/4A protease GT3): 151 ± 11 nM

Question: What does the source list for `COc1ccc2nc(C(F)(F)F)c(O[C@@H]3C[C@H]4C(=O)N[C@]5(C(=O)NS(=O)(=O)C6(C)CC6)C[C@H]5/C=C\CCCCC[C@H](NC(=O)OCC5(C)CC5(F)F)C(=O)N4C3)nc2c1` (stereo partly drawn) [NR02-56, (2,2-Difluoro-1-methylcyclopropyl)methyl ((2R,6S,13aS,14aR,16aS,Z)-2-((7-methoxy-3-(trifluoromethyl)quinoxalin-2-yl)oxy)-14a-(((1-methylcyclopropyl)sulfonyl)carbamoyl)-5,16-dioxo-1,2,3,5,6,7,8,9,10,11,13a,14,14a,15,16,16a-hexadecahydrocyclopropa[e]pyrrolo[1,2-a][1,4]diazacyclopentadecin-6-yl)carbamate]?
Answer: Ki [1]: 2.1 ± 0.5 nM; Ki [2]: 7.1 ± 0.9 nM; Ki (HCV NS3/4A protease GT3): 336 ± 47 nM
